Results on 62 compounds are retold here after US11492345B2, “Compounds and their methods of use” (Praxis Precision Medicines, Inc., priority 2017, dated 2022).

The structures appear in SMILES notation. Where only a bound is given, the exact number is not on record here.

This test has as its target T1, human Nav1.6 (hNav1.6) (Homo sapiens, UniProt Q9UQD0).
T1 construct: expressed in transfected cells; host or cells: HEK-293 (G418 selection)
As to the kind of experiment: Modulation of late sodium current (INaL), PatchXpress electrophysiology. In kind it is cell-based. The conditions noted are these: HEK293; 1 μM compound; HEK-293 cells expressing recombinant human Nav channel; late current evoked by 300 nM ATX-II; steady-state inhibition; read-out: INaL v1.6 (1 μM, % Inhibition). How it is done:
Functional characterization of exemplary compounds to modulate INaL expressed by the Nav1.6 voltage-gated sodium channel was accomplished using the PatchXpress™ high throughput electrophysiology platform (Molecular Devices, Sunnyvale, Calif.). HEK-293 cells expressing recombinant, human Nav1.6 (hNav1.6) were grown in DMEM/high-glucose Dulbecco's modified, 10% FBS, 2 mM sodium pyruvate, 10 mM HEPES and 400 μg/mL G418. Cells were grown to 50%-80% confluency prior to harvesting. Trypsinized cells were washed, allowed to recover for 1 hour and then resuspended in extracellular recording solution at a concentration of 1×10^6 cells/ml. The onboard liquid handling facility of the PatchXpress was used for dispensing cells and applying test compounds. Nav late currents were evoked by the application of 300 nM ATX-II. INaL was evoked by depolarizing pulses to 0 mV for 200 ms from a non-inactivating holding potential (e.g., −120 mV) at a frequency of 0.1 Hz. INaL amplitude and stability were determined by analyzing the mean current amplitude over the final 20 ms of the test pulse. […] Percent steady-state inhibition of INaL was calculated as: [(INaL_compound)/(INaL_control)]*100, where INaL_compound and INaL_control represent INaL recorded in the presence or absence of compound, respectively.

T1 sequence (Q9UQD0 whole entry): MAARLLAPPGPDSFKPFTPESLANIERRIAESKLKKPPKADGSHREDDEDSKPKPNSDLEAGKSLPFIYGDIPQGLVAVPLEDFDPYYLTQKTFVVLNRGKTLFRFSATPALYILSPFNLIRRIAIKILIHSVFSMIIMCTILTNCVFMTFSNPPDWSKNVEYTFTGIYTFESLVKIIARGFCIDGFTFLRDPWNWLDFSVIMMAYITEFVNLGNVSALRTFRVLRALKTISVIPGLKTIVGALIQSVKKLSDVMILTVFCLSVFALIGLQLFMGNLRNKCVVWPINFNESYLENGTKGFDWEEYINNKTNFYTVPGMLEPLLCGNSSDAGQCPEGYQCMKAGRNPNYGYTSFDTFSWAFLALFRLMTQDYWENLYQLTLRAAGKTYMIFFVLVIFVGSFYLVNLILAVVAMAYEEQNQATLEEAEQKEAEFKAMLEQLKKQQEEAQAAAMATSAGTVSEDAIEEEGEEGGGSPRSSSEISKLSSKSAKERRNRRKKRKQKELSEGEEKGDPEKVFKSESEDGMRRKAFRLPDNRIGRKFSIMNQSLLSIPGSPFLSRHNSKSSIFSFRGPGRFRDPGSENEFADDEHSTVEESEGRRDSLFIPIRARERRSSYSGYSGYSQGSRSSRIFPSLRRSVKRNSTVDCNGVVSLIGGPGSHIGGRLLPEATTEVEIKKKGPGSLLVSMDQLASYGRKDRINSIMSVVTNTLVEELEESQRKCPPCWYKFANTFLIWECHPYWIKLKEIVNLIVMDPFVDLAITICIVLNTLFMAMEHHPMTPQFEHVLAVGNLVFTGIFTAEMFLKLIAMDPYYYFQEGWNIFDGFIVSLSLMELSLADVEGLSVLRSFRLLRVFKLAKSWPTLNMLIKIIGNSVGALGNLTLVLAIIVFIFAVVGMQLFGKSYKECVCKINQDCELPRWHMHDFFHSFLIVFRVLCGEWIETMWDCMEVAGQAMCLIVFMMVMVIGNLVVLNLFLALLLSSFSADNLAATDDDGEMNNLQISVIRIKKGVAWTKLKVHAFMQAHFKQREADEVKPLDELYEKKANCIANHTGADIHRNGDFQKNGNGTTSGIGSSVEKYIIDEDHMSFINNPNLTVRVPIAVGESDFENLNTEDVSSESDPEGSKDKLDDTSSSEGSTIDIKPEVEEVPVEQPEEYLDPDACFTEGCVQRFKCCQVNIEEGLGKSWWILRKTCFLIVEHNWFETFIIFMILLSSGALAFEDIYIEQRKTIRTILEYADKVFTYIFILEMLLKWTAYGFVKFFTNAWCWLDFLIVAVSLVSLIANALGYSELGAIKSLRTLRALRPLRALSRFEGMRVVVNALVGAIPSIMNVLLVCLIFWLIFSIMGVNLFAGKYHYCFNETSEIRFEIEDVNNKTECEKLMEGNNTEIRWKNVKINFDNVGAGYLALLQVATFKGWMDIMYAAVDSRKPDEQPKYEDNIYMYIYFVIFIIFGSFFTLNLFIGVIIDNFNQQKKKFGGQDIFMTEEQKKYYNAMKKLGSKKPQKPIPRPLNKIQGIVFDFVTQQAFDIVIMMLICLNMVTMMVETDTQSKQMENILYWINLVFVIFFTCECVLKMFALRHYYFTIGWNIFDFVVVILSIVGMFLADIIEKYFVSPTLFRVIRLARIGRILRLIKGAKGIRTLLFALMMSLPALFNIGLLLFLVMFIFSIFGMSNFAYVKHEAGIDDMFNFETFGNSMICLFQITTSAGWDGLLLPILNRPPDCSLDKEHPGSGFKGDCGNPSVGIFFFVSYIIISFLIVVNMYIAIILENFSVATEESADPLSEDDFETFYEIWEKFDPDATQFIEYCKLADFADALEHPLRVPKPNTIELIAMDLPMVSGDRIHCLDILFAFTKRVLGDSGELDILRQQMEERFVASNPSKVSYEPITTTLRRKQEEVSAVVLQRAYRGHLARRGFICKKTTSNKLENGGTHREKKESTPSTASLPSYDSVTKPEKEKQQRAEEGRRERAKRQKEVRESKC

As for `O=c1oc2ccc(-c3ccc(OC(F)(F)F)cc3)nc2n1CC1COC1` [Compound 102], the inhibition at 1 µM was > 70%. The same measure for `O=c1oc2ccc(-c3ccc(OC(F)(F)F)cc3)nc2n1C[C@@H]1CCOC1` (single isomer, unassigned) [Compound 61]: > 70%; for `Cc1nnc(CCn2c(=O)oc3ccc(-c4ccc(OC(F)(F)F)cc4)cc32)o1` [Compound 3]: > 70%. Turning to `O=C(Cn1c(=O)oc2ccc(-c3ccc(OC(F)F)cc3)cc21)N1CCCC1` [Compound 148], the inhibition at 1 µM was < 30%. The figure for `[2H]C([2H])([2H])C([2H])([2H])n1c(=O)oc2ccc(-c3ccc(OC(F)(F)F)cc3)nc21` [Compound 91] is 30 to 70%; for `O=c1oc2ccc(-c3ccc(OC(F)(F)F)cc3)nc2n1C[C@H]1CCOC1` (single isomer, unassigned) [Compound 62] it is > 70%; for `CC(O)CCn1c(=O)oc2ccc(-c3ccc(OC(F)(F)F)cc3)nc21` (centres unmarked) [Compound 89] it is > 70%. Take `CC(=O)N1CCC[C@@H]1Cn1c(=O)oc2ccc(-c3ccc(OC(F)(F)F)cc3)cc21` [Compound 109]: the inhibition at 1 µM was > 70%. For `CN(CC(F)(F)F)C(=O)Cn1c(=O)oc2ccc(-c3ccc(OC(F)(F)F)cc3)cc21` [Compound 80], the inhibition at 1 µM was in the range of 30 to 70%. `C[C@@H]1CCCN1C(=O)Cn1c(=O)oc2ccc(-c3ccc(OC(F)(F)F)cc3)nc21` [Compound 134]: the inhibition at 1 µM was > 70%. `Cc1cc(Cn2c(=O)oc3ccc(-c4ccc(OC(F)(F)F)cc4)nc32)on1` [Compound 160]: the inhibition at 1 µM is > 70%. `O=c1oc2ccc(-c3ccc(OC(F)(F)F)cc3)cc2n1CCC1CC1` [Compound 19]: the inhibition at 1 µM was > 70%.

As for `COC[C@H]1CCN(C(=O)Cn2c(=O)oc3ccc(-c4ccc(OC(F)(F)F)cc4)cc32)C1` (single isomer, unassigned) [Compound 139], the inhibition at 1 µM was in the range of 30 to 70%.

Take `COCCn1c(=O)oc2ccc(-c3ccc(OC(F)(F)F)cc3)cc21` [Compound 9]: the inhibition at 1 µM was < 30%.

With `O=c1oc2ccc(-c3ccc(OCC(F)(F)F)nc3)cc2n1CC(F)(F)F` [Compound 6], the inhibition at 1 µM was in the range of 30 to 70%. Regarding `C[C@H](O)CCn1c(=O)oc2ccc(-c3ccc(OC(F)(F)F)cc3)cc21` [Compound 98], the inhibition at 1 µM is 30 to 70%. `O=c1oc2ccc(-c3ccc(OC(F)(F)F)cc3)nc2n1Cc1cnccn1` [Compound 143]: the inhibition at 1 µM was > 70%. Turning to `O=C1Cc2ccc(-c3ccc(OC(F)(F)F)cc3)cc2N1CC(F)(F)F` [Compound 4], the inhibition at 1 µM was > 70%. The same measure for `Cc1noc(C)c1Cn1c(=O)oc2ccc(-c3ccc(OC(F)(F)F)cc3)nc21` [Compound 152]: < 30%. `Cc1nnc(CCN2C(=O)Cc3ccc(-c4ccc(OC(F)(F)F)cc4)cc32)o1` [Compound 21]: the inhibition at 1 µM was 30 to 70%. Take `O=C(O)CCn1c(=O)oc2ccc(-c3ccc(OC(F)(F)F)cc3)cc21` [Compound 24]: the inhibition at 1 µM was < 30%. Turning to `O=c1oc2ccc(-c3ccc(OC(F)(F)F)cc3)nc2n1C[C@H]1CC1(F)F` (single isomer, unassigned) [Compound 106], the inhibition at 1 µM is > 70%.

On to `Cc1noc(Cn2c(=O)oc3ccc(-c4ccc(OC(F)(F)F)cc4)nc32)n1` [Compound 161], for which the inhibition at 1 µM was > 70%. Turning to `O=c1oc2ccc(-c3ccc(OC(F)(F)F)cc3)cc2n1CC1CC1` [Compound 12], the inhibition at 1 µM is > 70%. Take `CCn1c(=O)oc2ccc(-c3cnc(OCC(F)(F)F)c(F)c3)nc21` [Compound 71]: the inhibition at 1 µM is < 30%. As for `O=c1[nH]c2nc(-c3ccc(OC(F)(F)F)cc3)ccc2o1` [Compound 29, 5-[4-(trifluoromethoxy)phenyl]-3H-oxazolo[4,5-b]pyridin-2-one], the inhibition at 1 µM was < 30%.

As to `O=c1oc2ccc(-c3ccc(OC(F)(F)F)cc3)cc2n1CC1CCCOC1` (centres unmarked) [Compound 72], the inhibition at 1 µM is > 70%. For `O=c1oc2ccc(-c3ccc(OC(F)(F)F)cc3)cc2n1CC1CCCCO1` (centres unmarked) [Compound 57], the inhibition at 1 µM is > 70%. As to `COCCCn1c(=O)oc2ccc(-c3ccc(OC(F)(F)F)cc3)cc21` [Compound 15], the inhibition at 1 µM is < 30%. `O=c1oc2ccc(-c3ccc(OC(F)(F)F)cc3)cc2n1C[C@H]1CCOC1` (single isomer, unassigned) [Compound 70]: the inhibition at 1 µM lay within 30 to 70%. The figure for `O=c1oc2ccc(-c3ccc(OC(F)(F)F)cc3)cc2n1C[C@H]1CCCO1` [Compound 105] is > 70%. As to `NC(=O)Cn1c(=O)oc2ccc(-c3ccc(OC(F)(F)F)cc3)cc21` [Compound 42], the inhibition at 1 µM is < 30%. Turning to `O=c1oc2ccc(-c3ccc(OC(F)(F)F)cc3)nc2n1Cc1ccncn1` [Compound 141], the inhibition at 1 µM was 30 to 70%. As to `O=c1oc2ccc(-c3ccc(OC(F)(F)F)cc3)nc2n1C[C@H]1CCCOC1` (single isomer, unassigned) [Compound 66], the inhibition at 1 µM was > 70%.

On to `O=c1oc2ccc(-c3ccc(OC(F)(F)F)cc3)nc2n1CCc1cnccn1` [Compound 123], for which the inhibition at 1 µM is > 70%.

In the case of `O=C1OCCN1CCCn1c(=O)oc2ccc(-c3ccc(OC(F)(F)F)cc3)cc21` [Compound 31], the inhibition at 1 µM fell in the range of 30 to 70%.

Turning to `O=c1oc2ccc(-c3ccc(OC(F)(F)F)cc3)nc2n1C[C@@H]1CCCCO1` (single isomer, unassigned) [Compound 55], the inhibition at 1 µM lay in the range of 30 to 70%. Regarding `CCN(CC)C(=O)Cn1c(=O)oc2ccc(-c3ccc(OC(F)(F)F)cc3)cc21` [Compound 39], the inhibition at 1 µM was > 70%. As for `O=C(Cn1c(=O)oc2ccc(-c3ccc(OC(F)(F)F)cc3)cc21)N1CCOCC1` [Compound 40], the inhibition at 1 µM lay within 30 to 70%. As to `O=c1[nH]c2cc(-c3ccc(OC(F)(F)F)cc3)ccc2o1` [Compound 5, 5-[4-(trifluoromethoxy)phenyl]-3H-1,3-benzoxazol-2-one], the inhibition at 1 µM was > 70%.

With `O=c1oc2ccc(-c3cnc(OCC(F)(F)F)c(F)c3)nc2n1CCc1ncccn1` [Compound 122], the inhibition at 1 µM is < 30%. The figure for `CNC(=O)Cn1c(=O)oc2ccc(-c3ccc(OC(F)(F)F)cc3)cc21` [Compound 41] is < 30%; for `Cc1nnc(Cn2c(=O)oc3ccc(-c4ccc(OC(F)(F)F)cc4)nc32)s1` [Compound 155] it is > 70%; for `O=c1[nH]c2cc(-c3ccc(OCC(F)(F)F)nc3)ccc2o1` [Compound 20] it is 30 to 70%. Turning to `O=c1oc2ccc(-c3ccc(OC(F)(F)F)cc3)cc2n1Cc1ccncn1` [Compound 132], the inhibition at 1 µM was > 70%. The figure for `Cc1cc(OC(F)(F)F)ccc1-c1ccc2oc(=O)n(CCc3ncccn3)c2n1` [Compound 121] is 30 to 70%; for `O=c1oc2ncc(-c3ccc(OC(F)(F)F)cc3)cc2n1Cc1ccccc1` [Compound 34] it is 30 to 70%; for `O=c1oc2ccc(-c3ccc(OC(F)(F)F)cc3)nc2n1C[C@@H]1CCCOC1` (single isomer, unassigned) [Compound 67] it is > 70%. With `O=c1oc2ccc(-c3ccc(OC(F)(F)F)cc3)nc2n1CC(F)F` [Compound 86], the inhibition at 1 µM is > 70%.

Consider `Cn1cc(Cn2c(=O)oc3ccc(-c4ccc(OC(F)(F)F)cc4)nc32)cn1` [Compound 151], for which the inhibition at 1 µM is > 70%. The same measure for `[2H]C([2H])([2H])n1c(=O)oc2ccc(-c3ccc(OC(F)(F)F)cc3)nc21` [Compound 93]: > 70%. The same measure for `O=c1oc2ccc(-c3ccc(OC(F)(F)F)cc3)nc2n1C[C@H]1CCCO1` (single isomer, unassigned) [Compound 65]: 30 to 70%; for `O=c1oc2ccc(-c3ccc(OC(F)(F)F)cc3)nc2n1Cc1cncnc1` [Compound 103]: > 70%; for `O=c1oc2ccc(-c3ccc(OC(F)(F)F)cc3)nc2n1CC(F)(F)F` [Compound 33]: > 70%. The same measure for `Cn1nccc1Cn1c(=O)oc2ccc(-c3ccc(OC(F)(F)F)cc3)nc21` [Compound 158]: 30 to 70%. Turning to `CO[C@H]1CCN(C(=O)Cn2c(=O)oc3ccc(-c4ccc(OC(F)(F)F)cc4)cc32)C1` [Compound 125], the inhibition at 1 µM was < 30%. The figure for `CCn1c(=O)oc2ccc(-c3ccc(OC(F)(F)F)cc3)cc21` [Compound 11] is > 70%; for `O=c1oc2ccc(-c3ccc(OC(F)F)cc3)nc2n1CCc1ncccn1` [Compound 136] it is < 30%; for `Cn1c(=O)oc2ccc(-c3ccc(OC(F)(F)F)cc3)cc21` [Compound 10] it is > 70%.

As for `O=c1oc2ccc(-c3ccc(OC(F)(F)F)cc3)cc2n1Cc1ncccn1` [Compound 50], the inhibition at 1 µM was in the range of 30 to 70%. On to `O=c1oc2ccc(-c3ccc(OC(F)(F)F)cc3)cc2n1C[C@@H]1CCCCO1` (single isomer, unassigned) [Compound 58], for which the inhibition at 1 µM is > 70%. The same measure for `O=c1oc2ccc(-c3ccc(OC(F)(F)F)cc3)cc2n1C[C@@H]1CCOC1` (single isomer, unassigned) [Compound 69]: > 70%.

What is called inhibition is the relative decrease from the control value, in per cent.
